In US20070093548A1 (Wyeth, priority 2005, published 2007):
Read-outs that look alike come from different tables or passages of the source.

Assays:
[1] = tested on: alkaline phosphatase activity in T47D cells; test: T47D Cell Alkaline Phosphatase Assay; format: cell-based; conditions: Homo sapiens, read-out: Example 18A 'T47D Cell Alkaline Phosphatase Assay' Inhibition (%)
[2] = tested on: alkaline phosphatase activity in T47D cells; test: T47D Cell Alkaline Phosphatase Assay; format: cell-based, human; conditions: antagonist mode, in the presence of 1 nM progesterone, read-out: Example 18A 'T47D Cell Alkaline Phosphatase Assay' IC50
Experimental: A. Effects of Progestins and Antiprogestins on Alkaline Phosphatase Activity in T47D Cells—T47D Cell Alkaline Phosphatase Assay
The purpose of this assay is to identify progestins or antiprogestins by determining a compound's effect on alkaline phosphatase activity in T47D cells. The materials and methods are as follows.
Culture medium: DMEM:F12 (1:1) (GIBCO, BRL) supplemented with 5% (v/v) charcoal stripped fetal bovine serum (not heat-inactivated), 100 U/ml penicillin, 100 ug/ml streptomycin, and 2 mM GlutaMax (GIBCO, BRL).
Alkaline phosphatase assay buffer:
I. 0.1M Tris-HCl, pH 9.8, containing 0.2% Triton X-100
II. 0.1M Tris-HCl, pH 9.8, containing 4 mM p-nitrophenyl phosphate (Sigma).
Frozen T47D cells are thawed in a 37° C. water bath and diluted to 280,000 cells/ml in culture medium. To each well in a 96-well plate (Falcon, Becton Dickinson Labware), 180 μl of diluted cell suspension is added. 20 μl of reference or test compounds diluted in the culture medium is then added to each well. […] The cells are incubated at 37° C. in a 5% CO2/humidified atmosphere for 24 hours. NOTE: For high throughput screening, one concentration of each compound is tested at 0.3 μg/ml. Based on an average molecular weight of 300 g/mol for the compounds in the library, the concentration is approximately 1 μM.
At the end of treatment, the medium is removed from the plate. 50 μl of assay buffer I is added to each well. The plates are shaken in a titer plate shaker for 15 min. Then 150 μl of assay buffer II is added to each well.
Subsequent dose response data for screening hits will be evaluated as described below. Analysis of dose-response data. For reference and test compounds, a dose response curve is generated for dose (X-axis) vs. the rate of enzyme reaction (slope) (Y-axis). Square root-transformed data are used for analysis of variance and nonlinear dose response curve fitting for both agonist and antagonist modes. Huber weighting is used to downweight the effects of outliers. EC50 or IC50 values are calculated from the retransformed values.
Percent (%) of induction for agonists at the tested concentrations. […] The default concentration is in the nM range.

[3] = target: T1, progesterone receptor (PR) (Homo sapiens, UniProt P06401); test: Progesterone Receptor Whole Cell Competition Binding Assay Using T47D Cells; conditions: 3H-progesterone 3 nM, read-out: Example 18B 'T47D PR whole cell binding Assay' IC50
T1 construct: in live, intact (whole) cells, using the human breast carcinoma T47D cell line; endogenous in cells; host or cells: T47D human breast carcinoma cells (live, intact)
T1 sequence (P06401 1-933): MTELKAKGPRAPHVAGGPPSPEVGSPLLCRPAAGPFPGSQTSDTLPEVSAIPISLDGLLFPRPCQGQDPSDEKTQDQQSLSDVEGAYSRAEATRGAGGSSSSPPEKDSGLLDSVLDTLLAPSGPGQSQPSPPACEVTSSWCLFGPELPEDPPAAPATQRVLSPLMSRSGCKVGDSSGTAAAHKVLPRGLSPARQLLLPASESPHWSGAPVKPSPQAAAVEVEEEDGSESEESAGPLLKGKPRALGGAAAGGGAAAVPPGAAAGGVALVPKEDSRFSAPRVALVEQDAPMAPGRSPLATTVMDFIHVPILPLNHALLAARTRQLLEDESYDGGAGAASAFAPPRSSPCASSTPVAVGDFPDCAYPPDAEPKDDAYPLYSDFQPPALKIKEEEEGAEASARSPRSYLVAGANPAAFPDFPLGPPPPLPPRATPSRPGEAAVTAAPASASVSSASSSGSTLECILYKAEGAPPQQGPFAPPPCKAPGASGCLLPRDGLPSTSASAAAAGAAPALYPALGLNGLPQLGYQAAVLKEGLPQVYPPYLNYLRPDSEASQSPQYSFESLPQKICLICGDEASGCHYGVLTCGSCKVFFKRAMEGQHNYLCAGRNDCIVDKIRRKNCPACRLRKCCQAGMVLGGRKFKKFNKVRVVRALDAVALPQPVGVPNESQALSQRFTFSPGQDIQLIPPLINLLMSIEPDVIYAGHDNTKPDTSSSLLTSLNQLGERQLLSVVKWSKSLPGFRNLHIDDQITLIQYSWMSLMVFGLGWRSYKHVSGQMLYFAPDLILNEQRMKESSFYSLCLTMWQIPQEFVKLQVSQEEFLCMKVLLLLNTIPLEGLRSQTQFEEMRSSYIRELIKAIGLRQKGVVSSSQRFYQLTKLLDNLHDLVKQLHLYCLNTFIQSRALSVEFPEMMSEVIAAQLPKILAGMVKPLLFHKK
Experimental: 1. Culture medium: 5% RC: phenol red free DMEM:F12 (1:1) (GIBCO, BRL) supplemented with 5% (v/v) charcoal stripped fetal bovine serum (not heat-inactivated), 100 U/ml penicillin, 100 ug/ml streptomycin, and 2 mM GlutaMax (GIBCO, BRL).
2. T47D cell culture: T47D cells are maintained in 10% RC media at 37° C. in a 5% CO2/humidified atmosphere and need to be split twice weekly for proper response. Cells are plated in 10% RC the day before binding assay at 50,000 cells per well in the white, clear bottom plates purchased through VWR or Perkin Elmer.
Cells plated the day prior to the assay in white clear bottom plates are used. A master compound plate is set up containing control and test compounds at 20× final desired concentration for the competition binding. A typical dose range of 20× concentrations are (in nM); 200,000; 20,000; 6000; 2000; 600; 200; 20; and 2. Final concentrations are then (in nM); 10,000; 1000; 300; 100; 30; 10; 1; 0.1.
Media on cells is replaced with 180 μl of 5% RC. […] Compounds are incubated for 3 hrs at 37° C. […] Following incubation, media is carefully removed and cells are washed 3× with 200 μl 5% RC each wash. 50 μl of liquid scintillation cocktail is added and the plates are shaken vigorously for a minimum of 15 minutes.
Square root-transformed data are used for analysis of variance and calculation of IC50 SAS software (SAS Institute, Inc.) is used for all the statistical analysis.

Row | SMILES | IC50 ([2]; Homo sapiens, T47D, 24 h) [nM] | melting point | IC50 [3] [nM] | further results
1 | N#Cc1ccc2oc3c(-c4ccccc4F)c(O)c(F)cc3c2c1 [Example 8, 8-fluoro-6-(2-fluorophenyl)-7-hydroxydibenzo[b,d]furan-2-carbonitrile] | – | – | – | inhibition at 3 µM [1]: 40%
2 | Cc1ccccc1-c1c(O)c(F)cc2c1oc1ccc(C#N)cc12 [Example 4, 8-fluoro-7-hydroxy-6-(2-methylphenyl)dibenzo[b,d]furan-2-carbonitrile] | – | – | – | inhibition at 3 µM [1]: 50%
3 | CCC(C)c1c(OC)ccc2c1oc1ccc(C#N)cc12 (racemic) [Example 12, 6-sec-butyl-7-methoxydibenzo[b,d]furan-2-carbonitrile] | 18.5 | 80 to 82 °C | 59.7 | –
4 | N#Cc1ccc2oc3c(C4CCCC4)c(O)ccc3c2c1 [Example 11, 6-cyclopentyl-7-hydroxydibenzo[b,d]furan-2-carbonitrile] | 50 | – | – | –
5 | CCC(C)c1c(OC)ccc2c1oc1ccc(C#N)cc12 (single isomer, unassigned; (-)) [Example 17, (−)-6-sec-butyl-7-methoxydibenzo[b,d]furan-2-carbonitrile] | – | – | – | IC50 [2]: 30 nM
6 | COc1cc2oc3ccc(C#N)cc3c2cc1F [Example 7, 8-fluoro-7-methoxydibenzo[b,d]furan-2-carbonitrile] | – | 206 to 208 °C | – | inhibition at 3 µM [1]: 65%
7 | CCC(C)c1c(O)ccc2c1oc1ccc(C#N)cc12 (racemic) [Example 13, 6-sec-butyl-7-hydroxydibenzo[b,d]furan-2-carbonitrile] | 19 | 206 to 207 °C | 36.7 | –
8 | CCC(C)c1c(OC)ccc2c1oc1ccc(C#N)cc12 (single isomer, unassigned; (+)) [Example 16, (+)-6-sec-butyl-7-methoxydibenzo[b,d]furan-2-carbonitrile] | – | – | – | IC50 [2]: 13 nM
9 | CC(C)c1c(O)ccc2c1oc1ccc(C#N)cc12 [Example 10, 7-hydroxy-6-isopropyldibenzo[b,d]furan-2-carbonitrile] | 28 | 180 to 182 °C | 21.1 | –
10 | N#Cc1ccc2oc3cc(O)c(F)cc3c2c1 [Example 6, 8-fluoro-7-hydroxydibenzo[b,d]furan-2-carbonitrile] | – | 270 °C (dec.) | – | –
11 | N#Cc1ccc2oc3c(Br)c(O)c(F)cc3c2c1 [Example 3, 6-bromo-8-fluoro-7-hydroxydibenzo[b,d]furan-2-carbonitrile] | – | 270 °C (dec.) | – | –
12 | COc1ccc2c(oc3ccc(C#N)cc32)c1C(C)C [Example 9, 6-isopropyl-7-methoxydibenzo[b,d]furan-2-carbonitrile] | 48 | – | – | –
13 | CCC(C)c1c(O)ccc2c1oc1ccc(C#N)cc12 (single isomer, unassigned; (+)) [Example 14, (+)-6-sec-butyl-7-hydroxydibenzo[b,d]furan-2-carbonitrile] | – | – | 41.5 | IC50 [2]: 22 nM
14 | N#Cc1ccc2oc3cc(O)ccc3c2c1 [Example 2, 7-hydroxydibenzo[b,d]furan-2-carbonitrile] | 534 | 270 to 271 °C | – | –
15 | COc1ccc2c(c1)oc1ccc(C#N)cc12 [Example 1, 7-methoxydibenzo[b,d]furan-2-carbonitrile] | 259 | – | – | –
16 | CCC(C)c1c(O)ccc2c1oc1ccc(C#N)cc12 (single isomer, unassigned; (-)) [Example 15, (−)-6-sec-butyl-7-hydroxydibenzo[b,d]furan-2-carbonitrile] | – | – | 81.2 | IC50 [2]: 148 nM
